In patent publication US12268683B2, “Compounds and methods for synergistic activation of M channels” (THE REGENTS OF THE UNIVERSITY OF CALIFORNIA, priority 2018, dated 2025):
“Also recorded” adds a separate entry of the source. Read-outs that look alike come from different tables or passages of the source.

Columns and labels:
[1] = molecular target: KCNQ4 (Homo sapiens, UniProt P56696); experiment: TEVC of homomeric KCNQ4 expressed in Xenopus oocytes; type: cell-based
Description: (§1) cRNA transcripts encoding human KCNA1, KCNQ1, KCNQ2, KCNQ3, KCNQ4, or KCNQ5 were generated by in vitro transcription using the T7 polymerase message machine kit (Thermo Fisher Scientific), after vector linearization, from cDNA sub-cloned into plasmids incorporating X. laevis β-globin 5′ and 3′ UTRs flanking the coding region to enhance translation and cRNA stability. cRNA was quantified by spectrophotometry. Mutant cDNAs were generated by site-directed mutagenesis using a QuikChange kit according to manufacturer's protocol (Stratagene, San Diego, Calif.) and corresponding cRNAs prepared as above. Defolliculated stage V and VI X. laevis oocytes (Ecocyte Bioscience, Austin, Tex.) were injected with Kv channel a subunit cRNAs (10 ng total per oocyte). Oocytes were incubated at 16° C. in Barth's saline solution (Ecocyte) containing penicillin and streptomycin, with daily washing, for 3-5 days prior to two-electrode voltage-clamp (TEVC) recording.
(§2) TEVC recording was performed at room temperature with an OC-725C amplifier (Warner Instruments, Hamden, Conn.) and pClamp10.2 software (Molecular Devices, Sunnyvale, Calif.) 3-5 days after cRNA injection as described in the section above. Oocytes were placed in a small-volume oocyte bath (Warner) and viewed with a dissection microscope. Chemicals were sourced from Sigma. Bath solution was (in mM): 96 NaCl, 4 KCl, 1 MgCl2, 1 CaCl2. 10 HEPES (pH 7.6). […] MTX (DMSO), sorbic acid (ethanol), and glutaconic acid (molecular grade H2O) were stored at −20° C. as 1 M stocks. Oleamide was stored as a 1 mM stock in ethanol at 4° C. Palmitic acid was conjugated with bovine serum albumin as a 1 mM stock and stored at −20° C. All compounds were diluted to working concentrations each experimental day. All compounds were introduced to the recording bath via gravity perfusion at a constant flow of 1 ml/min for 3 min prior to recording. Pipettes were of 1-2 MΩ resistance when filled with 3 M KCl. Currents were recorded in response to pulses between −80 and +40 mV at 20 mV intervals, or a single pulse to +40 mV, from a holding potential of −80 mV, to yield current-voltage relationships, current magnitude, and for quantifying activation rate. TEVC data analysis was performed with Clampfit10.2 (Molecular Devices) and Graphpad Prism software (GraphPad, San Diego, Calif., USA); values are stated as mean±SEM. Normalized tail currents were plotted versus prepulse voltage and fitted with a single Boltzmann function:
cRNA transcripts encoding human KCNQ2, KCNQ3, KCNQ4, KCNQ5 (Kv7.2-Kv7.5) were generated by in vitro transcription using the T7 polymerase mMessage mMachine kit (Thermo Fisher Scientific), after vector linearization, from cDNA sub-cloned into plasmids incorporating Xenopus laevis β-globin 5′ and 3′ UTRs flanking the coding region to enhance translation and cRNA stability. cRNA was quantified by spectrophotometry. Mutant KCNQ2 and KCNQ3 cDNAs were generated with site-directed mutagenesis using a QuikChange kit according to the manufacturer's protocol (Stratagene, San Diego, Calif.) and corresponding cRNAs prepared as above. Defolliculated stage V and VI Xenopus laevis oocytes (Ecocyte Bioscience, Austin, Tex.) were injected with KCNQ channel α subunit cRNAs (5-10 ng). The oocytes were incubated at 16° C. in Barth's saline solution (Ecocyte) containing penicillin and streptomycin, with daily washing, for 2-5 days prior to two-electrode voltage-clamp (TEVC) recording.
TEVC recording was performed at room temperature using a OC-725C amplifier (Warner Instruments, Hamden, Conn.) and pClamp8 software (Molecular Devices, Sunnyvale, Calif.) 2-5 days after cRNA injection as described in the section above. The oocytes were placed in a small-volume oocyte bath (Warner) and viewed with a dissection microscope. Unless otherwise stated, chemicals were sourced from Sigma. Bath solution was (in mM): 96 NaCl, 4 KCl, 1 MgCl2, 1 CaCl2, 10 HEPES (pH 7.6).

[2] = molecular target: KCNQ2/3 (Homo sapiens, UniProt O43525+O43526); experiment: TEVC of heteromeric KCNQ2/3 channels expressed in Xenopus laevis oocytes; type: cell-based
Description: as §1
as §2, with “function: […]” for “function:”
cRNA transcripts encoding human KCNQ2, KCNQ3, KCNQ4, KCNQ5 (Kv7.2-Kv7.5) were generated by in vitro transcription using the T7 polymerase mMessage mMachine kit (Thermo Fisher Scientific), after vector linearization, from cDNA sub-cloned into plasmids incorporating Xenopus laevis β-globin 5′ and 3′ UTRs flanking the coding region to enhance translation and cRNA stability. cRNA was quantified by spectrophotometry. Mutant KCNQ2 and KCNQ3 cDNAs were generated with site-directed mutagenesis using a QuikChange kit according to the manufacturer's protocol (Stratagene, San Diego, Calif.) and corresponding cRNAs prepared as above.

NCC1(CC(=O)O)CCCCC1 [gabapentin, reference compound]
effect on KCNQ4 (in words) [1]: insensitive
effect on KCNQ2/3 activity (in words) [2]: potently activated
effect on KCNQ2/3 gating kinetics [2]: speeded KCNQ2/3 activation and slowed deactivation
potency on KCNQ2/3, fold more potent than GABA [2]: 200 fold
shift in voltage dependence of KCNQ2/3 activation ([2]; 1 μM gabapentin): −9 mV
washout of effect on KCNQ2/3 ([2]; after 2 minutes): < 50%
EC50 ([2]; current at −60 mV, read-out: EC50 for KCNQ2/3 activation): 4.2 nM
shift of membrane potential (EM) of KCNQ2/3-expressing oocytes ([2]; unclamped oocytes): > −10 mV
time to plateau of KCNQ2/3 current augmentation on wash-in ([2]; −60 mV): ~2 min
KCNQ2/3 current fold-increase ([2]; −60 mV, 10 nM): 3.5 fold

CCCCCCCCC/C=C/C=O [(E)-2-dodecenal]
effect on KCNQ2/3 activity (in words) [2]: activated KCNQ2/3
shift in voltage dependence of KCNQ2/3 activation ([2]; 100 nM): > 10 mV
EC50 ([2]; wild-type KCNQ2/3, read-out: EC50 of KCNQ2/3 activation by (E)-2-dodecenal): 60 ± 20 nM

NCC(=O)O [glycine, reference compound]
effect on KCNQ4 (in words) [1]: unable to open
effect on KCNQ2/3 activity (in words) [2]: nor does it activate KCNQ2/3; also recorded: no effect

CC(=O)c1c(O)c(C)c(O)c(Cc2c(O)c3c(c(C(=O)/C=C/c4ccccc4)c2O)OC(C)(C)C=C3)c1O [MTX, mallotoxin]
shift of midpoint voltage of KCNQ4 activation ([1]; MTX 30 μM): −17 mV
EC50 ([1]; −60 mV, read-out: EC50 of KCNQ4 activation): 20200 nM
effect on KCNQ2/3 gating kinetics [2]: speeded KCNQ2/3 activation and slowed deactivation
effect on KCNQ2/3 at low dose ([2]; 1 μM alone): negligible effects
effect on voltage dependence of KCNQ2/3 activation, screen of M. oppositifolius leaf compounds ([2]; 100 μM, MTX and palmitic acid 30 μM): negative-shifted
effect on KCNQ2/3 at +40 mV ([2]; +40 mV): little effect
relative ion permeability of KCNQ2/3 compared to K+ ([2]; MTX 30 μM, 100 mM ion): increased relative permeability of KCNQ2/3 to Na^+ and Cs^+, and decreased permeability to Rb^+
shift of V0.5 of KCNQ2/3 activation (ΔV0.5) ([2]; RTG 10 μM, MTX 30 μM, IVA 500 μM, alone or in combination): −17 mV
EC50 ([2]; current at −60 mV, read-out: EC50 of KCNQ2/3 activation): 11500 nM
time to plateau of KCNQ2/3 activation on wash-in ([2]; −60 mV): 5 min
KCNQ2/3 current fold-increase ([2]; −60 mV, 100 μM MTX): seven-fold
KCNQ2/3 current fold-increase ([2]; −60 mV, MTX 30 μM, IVA 500 μM alone or in combination): fivefold

CS(=O)(=O)N(CC(=O)O)c1cccc(F)c1 [3FMSG]
effect on KCNQ4 (in words) [1]: negligible effects
effect on KCNQ2/3 gating kinetics [2]: speeded KCNQ2/3 activation and slowed its deactivation
tau of KCNQ2/3 current decrease during washout ([2]; 100 μM, −60 mV): 39 ± 10 s
tau of KCNQ2/3 current increase during wash-in ([2]; 100 μM, −60 mV): 15 ± 3 s
EC50 ([2]; Example 4, read-out: EC50, shift in voltage dependence of KCNQ2/3 activation (ΔV0.5act)): 51 ± 21 nM
